According to PubChem BioAssay AID190 (DTP/NCI, 2004):
Values joined by “and” are separate entries in the source; they are usually repeats but may differ in a detail not shown here. Equal values may be shown once. Inconclusive results and toxic doses are left out.

Test system: AKR/Lw mice, AKR lymphoma ip, median survival T/C
Test: NCI In Vivo Anticancer Drug Screen. Data for tumor model Lymphoma AKR (Transplanted) (intraperitoneal) in AKR/Lw mice
Conditions: endpoint: median survival time, higher = longer survival
Protocol: The antitumor activity of compounds was measured in mice bearing transplantable tumors. Survival or tumor size were measured and the results are expressed as the measurement made in the treated group (T) divided by the measurement made in the vehicle treated control group (C). The tumor model used in this assay is Lymphoma AKR (Transplanted) (intraperitoneal) in AKR/Lw mice

[1] = dose: 12.5 mg/kg/injection, schedule: Q01DX001 (ip), vehicle: saline
[2] = dose: 100.0 mg/kg/injection, schedule: Q01DX001 (ip), vehicle: Klucel (hydroxypropylcellulose) (HPC)

CC[C@](O)(C(=O)O)c1cc2n(c(=O)c1CO)Cc1cc3ccccc3nc1-2
T/C (dose: 0.02 mg/kg/injection, schedule: Q01DX009 (ip), vehicle: saline): 94 % of control | T/C (dose: 0.05 mg/kg/injection, schedule: Q01DX009 (ip), vehicle: saline): 105 % of control | T/C (dose: 0.06 mg/kg/injection, schedule: Q01DX009 (ip), vehicle: saline): 106 % of control | T/C (dose: 0.1 mg/kg/injection, schedule: Q01DX009 (ip), vehicle: saline): 100 % of control and 103 % of control | T/C (dose: 0.12 mg/kg/injection, schedule: Q01DX009 (ip), vehicle: saline): 100 % of control and 114 % of control | T/C (dose: 0.15 mg/kg/injection, schedule: Q01DX009 (ip), vehicle: saline): 106 % of control | T/C (dose: 0.35 mg/kg/injection, schedule: Q01DX009 (ip), vehicle: saline): 106 % of control | T/C (dose: 0.37 mg/kg/injection, schedule: Q01DX009 (ip), vehicle: saline): 101 % of control | T/C (dose: 0.4 mg/kg/injection, schedule: Q01DX009 (ip), vehicle: saline): 118 % of control | T/C (dose: 0.6 mg/kg/injection, schedule: Q01DX009 (ip), vehicle: saline): 96 % of control | T/C (dose: 0.6 mg/kg/injection, schedule: Q04DX003 (ip), vehicle: saline): 88 % of control | T/C (dose: 0.75 mg/kg/injection, schedule: Q01DX009 (ip), vehicle: saline): 117 % of control | T/C (dose: 1.2 mg/kg/injection, schedule: Q04DX003 (ip), vehicle: saline): 97 % of control and 104 % of control | T/C (dose: 1.25 mg/kg/injection, schedule: Q01DX001 (ip), vehicle: saline): 121 % of control | T/C (dose: 2.5 mg/kg/injection, schedule: Q01DX001 (ip), vehicle: saline): 107 % of control | T/C (dose: 2.5 mg/kg/injection, schedule: Q01DX009 (ip), vehicle: saline): 88 % of control and 113 % of control | T/C (dose: 3.7 mg/kg/injection, schedule: Q04DX003 (ip), vehicle: saline): 106 % of control | T/C (dose: 5.0 mg/kg/injection, schedule: Q01DX001 (ip), vehicle: saline): 102 % of control and 114 % of control | T/C (dose: 7.5 mg/kg/injection, schedule: Q04DX003 (ip), vehicle: saline): 112 % of control | T/C [1]: 120 % of control | T/C (dose: 15.0 mg/kg/injection, schedule: Q04DX003 (ip), vehicle: saline): 150 % of control | T/C (dose: 18.0 mg/kg/injection, schedule: Q01DX001 (ip), vehicle: saline): 95 % of control | T/C (dose: 30.0 mg/kg/injection, schedule: Q04DX003 (ip), vehicle: saline): 103 % of control and 115 % of control | T/C (dose: 40.0 mg/kg/injection, schedule: Q01DX001 (ip), vehicle: saline): 113 % of control | T/C (dose: 80.0 mg/kg/injection, schedule: Q01DX001 (ip), vehicle: saline): 97 % of control

CC(C)c1ccc(C(c2c(O)c3ccccc3oc2=O)c2c(O)c3ccccc3oc2=O)cc1
T/C [2]: 113 % of control | T/C (dose: 200.0 mg/kg/injection, schedule: Q01DX001 (ip), vehicle: Klucel (hydroxypropylcellulose) (HPC)): 106 % of control | T/C (dose: 400.0 mg/kg/injection, schedule: Q01DX001 (ip), vehicle: Klucel (hydroxypropylcellulose) (HPC)): 90 % of control

Cc1cnc2c(N)[nH]nc2n1
T/C (dose: 25.0 mg/kg/injection, schedule: Q01DX001 (ip), vehicle: Klucel (hydroxypropylcellulose) (HPC)): 100 % of control | T/C (dose: 50.0 mg/kg/injection, schedule: Q01DX001 (ip), vehicle: Klucel (hydroxypropylcellulose) (HPC)): 97 % of control | T/C [2]: 106 % of control

Nc1n[nH]c(N)n1
T/C (dose: 37.5 mg/kg/injection, schedule: Q06HX012 (ip), vehicle: saline): 96 % of control | T/C (dose: 37.5 mg/kg/injection, schedule: Q06HX016 (ip), vehicle: saline): 100 % of control | T/C (dose: 50.0 mg/kg/injection, schedule: Q01DX010 (ip), vehicle: saline): 106 % of control | T/C (dose: 75.0 mg/kg/injection, schedule: Q06HX008 (ip), vehicle: saline): 100 % of control | T/C (dose: 75.0 mg/kg/injection, schedule: Q06HX012 (ip), vehicle: saline): 93 % of control | T/C (dose: 75.0 mg/kg/injection, schedule: Q06HX016 (ip), vehicle: saline): 96 % of control | T/C (dose: 100.0 mg/kg/injection, schedule: Q01DX010 (ip), vehicle: saline): 103 % of control | T/C (dose: 125.0 mg/kg/injection, schedule: Q06HX004 (ip), vehicle: saline): 116 % of control | T/C (dose: 150.0 mg/kg/injection, schedule: Q01DX009 (ip), vehicle: saline): 103 % of control | T/C (dose: 150.0 mg/kg/injection, schedule: Q06HX008 (ip), vehicle: saline): 93 % of control | T/C (dose: 150.0 mg/kg/injection, schedule: Q06HX012 (ip), vehicle: saline): 110 % of control | T/C (dose: 150.0 mg/kg/injection, schedule: Q06HX016 (ip), vehicle: saline): 103 % of control | T/C (dose: 175.0 mg/kg/injection, schedule: Q01DX010 (ip), vehicle: saline): 109 % of control | T/C (dose: 200.0 mg/kg/injection, schedule: Q04DX003 (ip), vehicle: saline): 106 % of control | T/C (dose: 250.0 mg/kg/injection, schedule: Q01DX010 (ip), vehicle: saline): 112 % of control | T/C (dose: 250.0 mg/kg/injection, schedule: Q06HX004 (ip), vehicle: saline): 90 % of control and 92 % of control and 119 % of control | T/C (dose: 300.0 mg/kg/injection, schedule: Q01DX009 (ip), vehicle: saline): 100 % of control | T/C (dose: 300.0 mg/kg/injection, schedule: Q06HX008 (ip), vehicle: saline): 107 % of control | T/C (dose: 300.0 mg/kg/injection, schedule: Q06HX012 (ip), vehicle: saline): 100 % of control | T/C (dose: 375.0 mg/kg/injection, schedule: Q01DX010 (ip), vehicle: saline): 116 % of control | T/C (dose: 400.0 mg/kg/injection, schedule: Q04DX003 (ip), vehicle: saline): 110 % of control | T/C (dose: 450.0 mg/kg/injection, schedule: Q06HX008 (ip), vehicle: saline): 107 % of control | T/C (dose: 450.0 mg/kg/injection, schedule: Q06HX012 (ip), vehicle: saline): 92 % of control | T/C (dose: 500.0 mg/kg/injection, schedule: Q06HX004 (ip), vehicle: saline): 88 % of control and 116 % of control | T/C (dose: 530.0 mg/kg/injection, schedule: Q04DX003 (ip), vehicle: saline): 109 % of control | T/C (dose: 675.0 mg/kg/injection, schedule: Q06HX012 (ip), vehicle: saline): 107 % of control | T/C (dose: 800.0 mg/kg/injection, schedule: Q04DX003 (ip), vehicle: saline): 121 % of control | T/C (dose: 1000.0 mg/kg/injection, schedule: Q06HX008 (ip), vehicle: saline): 92 % of control

CC1(C)CC[N+]1(C)Cc1ccccc1 (configuration not stated)
T/C (dose: 6.25 mg/kg/injection, schedule: Q01DX001 (ip), vehicle: saline): 97 % of control | T/C [1]: 100 % of control | T/C (dose: 25.0 mg/kg/injection, schedule: Q01DX001 (ip), vehicle: saline): 100 % of control
